In paper PMC11062899, “De novo development of small cyclic peptides that are orally bioavailable” (Nature Chemical Biology, 2023):
Several values for one entry are separate records, joined by “and”; a condition that tells them apart may be missing. Equal values may be shown once. Blank lines part the entries; values can stand above or below the compound they belong to.

Assays:
thrombin = biological target: T1, thrombin (Homo sapiens, UniProt P00734); test: Target specificity profiling: thrombin; format: biochemical; conditions: replicates R1-R3
T1 construct: […]; purchased Molecular Innovations
Procedure: (§1) The protease specificity was assessed by testing the inhibition of a series of trypsin-like serine proteases using fluorogenic or chromogenic substrates. Peptide dilutions ranging from 40 μM to 40 nM were prepared for all proteases except thrombin (1 μM to 1 nM). […]. The following fluorogenic substrates were used at a final concentration of 50 μM: Z-Gly-Gly-Arg-AMC (Bachem) for thrombin and trypsin; Z-Phe-Arg-AMC (Bachem) for plasma kallikrein; Boc-Phe-Ser-Arg-AMC (Bachem) for factor XIa; and Boc-Gln-Gly-Arg-AMC (Bachem) for factor XIIa. […]. Reactions were performed in a volume of 150 μl in 96-well plates. A volume of 50 μl of twofold dilutions of macrocycle in assay buffer was pipetted into the wells of the plates. A volume of 50 μl of protease in assay buffer was added to each well and incubated for 15 min. A volume of 50 μl of substrate in assay buffer containing 3% DMSO was added. Fluorescence intensity was measured for 30 min using an Infinite M200 Pro plate reader (Tecan; excitation at 368 nm, emission at 467 nm), with one measurement every minute. For APC protease, absorbance was measured at 405 nm using the same plate reader for a period of 30 min with one reading every minute. Reactions were performed at 25 °C. Data were analyzed by Excel (version 2016).

[1] = biological target: T2, activated protein C (APC) (Homo sapiens, UniProt P04070); test: Target specificity profiling: activated protein C; format: biochemical; conditions: replicates R1-R3
T2 construct: purchased Molecular Innovations
T2 sequence (P04070 212-461 limits assumed): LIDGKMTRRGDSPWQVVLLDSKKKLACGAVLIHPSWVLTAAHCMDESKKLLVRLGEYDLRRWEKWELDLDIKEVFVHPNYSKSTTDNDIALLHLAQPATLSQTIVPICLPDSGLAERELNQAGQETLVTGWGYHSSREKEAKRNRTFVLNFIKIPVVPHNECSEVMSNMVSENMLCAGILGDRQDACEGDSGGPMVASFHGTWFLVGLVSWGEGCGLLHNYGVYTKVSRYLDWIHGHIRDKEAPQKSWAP
T2 sequence (P04070 43-197 partner limits assumed): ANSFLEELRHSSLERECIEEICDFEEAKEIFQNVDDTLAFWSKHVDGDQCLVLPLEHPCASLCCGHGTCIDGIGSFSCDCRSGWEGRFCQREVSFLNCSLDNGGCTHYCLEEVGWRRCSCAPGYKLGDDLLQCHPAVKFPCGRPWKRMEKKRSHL
Procedure: as §1

plasma kallikrein = biological target: T3, plasma kallikrein (Homo sapiens, UniProt P03952); test: Target specificity profiling: plasma kallikrein; format: biochemical; conditions: replicates R1-R3
T3 construct: 0.25 nM plasma kallikrein (Innovative Research); purchased Innovative Research
T3 sequence (P03952 391-638 limits assumed): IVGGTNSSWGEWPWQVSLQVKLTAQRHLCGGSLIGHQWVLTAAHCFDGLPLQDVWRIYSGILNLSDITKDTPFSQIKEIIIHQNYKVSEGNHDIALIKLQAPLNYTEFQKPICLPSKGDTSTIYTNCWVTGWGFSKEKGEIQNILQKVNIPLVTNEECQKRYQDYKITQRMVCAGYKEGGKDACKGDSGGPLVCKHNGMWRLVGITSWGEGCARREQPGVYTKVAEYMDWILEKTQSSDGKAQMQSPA
T3 sequence (P03952 20-390 partner limits assumed): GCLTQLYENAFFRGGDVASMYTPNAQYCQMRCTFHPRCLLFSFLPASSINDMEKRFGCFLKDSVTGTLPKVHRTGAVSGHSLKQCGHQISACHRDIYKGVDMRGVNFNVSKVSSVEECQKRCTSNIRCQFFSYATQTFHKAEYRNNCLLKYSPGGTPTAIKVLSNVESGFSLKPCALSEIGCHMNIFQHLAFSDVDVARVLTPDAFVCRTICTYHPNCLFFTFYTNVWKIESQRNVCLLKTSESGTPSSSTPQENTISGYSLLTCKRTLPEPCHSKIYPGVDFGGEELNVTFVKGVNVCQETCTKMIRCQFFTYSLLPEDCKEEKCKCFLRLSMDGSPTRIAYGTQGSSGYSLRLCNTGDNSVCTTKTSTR
Procedure: as §1

factor XIa = biological target: T4, factor XIa (Homo sapiens, UniProt P03951); test: Target specificity profiling: factor XIa; format: biochemical; conditions: replicates R1-R3
T4 construct: 1 nM factor XIa (Innovative Research); purchased Innovative Research
T4 sequence (P03951 388-625 limits assumed): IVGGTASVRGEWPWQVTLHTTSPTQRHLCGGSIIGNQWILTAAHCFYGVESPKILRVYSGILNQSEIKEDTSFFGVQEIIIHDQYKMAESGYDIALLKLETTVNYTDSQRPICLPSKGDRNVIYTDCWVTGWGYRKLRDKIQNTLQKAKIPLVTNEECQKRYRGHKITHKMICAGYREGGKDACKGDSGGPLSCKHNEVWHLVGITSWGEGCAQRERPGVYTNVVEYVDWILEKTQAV
T4 sequence (P03951 19-387 partner limits assumed): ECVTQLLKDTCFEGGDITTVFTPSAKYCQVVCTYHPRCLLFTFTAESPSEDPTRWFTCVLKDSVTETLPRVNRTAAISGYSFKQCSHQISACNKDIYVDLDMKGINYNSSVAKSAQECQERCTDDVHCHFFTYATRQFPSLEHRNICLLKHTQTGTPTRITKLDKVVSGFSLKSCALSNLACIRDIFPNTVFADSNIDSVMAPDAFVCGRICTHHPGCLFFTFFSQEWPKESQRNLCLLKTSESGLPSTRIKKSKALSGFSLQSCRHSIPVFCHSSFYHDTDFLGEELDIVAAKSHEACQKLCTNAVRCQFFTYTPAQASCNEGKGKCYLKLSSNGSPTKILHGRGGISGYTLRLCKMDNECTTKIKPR
Procedure: as §1

factor XIIa = biological target: T5, factor XIIa (Homo sapiens, UniProt P00748); test: Target specificity profiling: factor XIIa; format: biochemical; conditions: replicates R1-R3
T5 construct: 5.3 nM factor XIIa (Molecular Innovations); purchased Molecular Innovations
T5 sequence (P00748 373-615 limits assumed, other chains not shown): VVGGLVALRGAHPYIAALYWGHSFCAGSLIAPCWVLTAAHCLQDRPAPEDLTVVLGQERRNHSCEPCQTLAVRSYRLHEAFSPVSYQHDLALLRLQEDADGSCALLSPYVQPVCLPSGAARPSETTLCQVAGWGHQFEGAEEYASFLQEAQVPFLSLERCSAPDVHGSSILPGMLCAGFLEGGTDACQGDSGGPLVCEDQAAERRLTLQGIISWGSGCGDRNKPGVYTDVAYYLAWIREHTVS
Procedure: as §1

[2] = Measurement of in vivo gastrointestinal stability in rats; design: species or system rat; conditions: for Concentration in organ extract: rat n = 1, 30 min after p.o. 10 mg kg^−1
Procedure: Peptide 43 was dissolved in 10% Cremophor EL and 5% DMSO in water at a concentration of 1 mg ml^−1 and administrated by oral gavage to a rat at a dose of 10 mg kg^−1. The rat was killed 30 min after the administration using a CO2 chamber followed by cervical dislocation. Stomach, small intestine (duodenum/jejunum and ileum were collected separately) and large intestine were removed and immediately frozen in pre-cooled containers on dry ice. Organs and their respective content were collected separately to facilitate homogenization and sample processing. The organs were homogenized using a mortar and pestle on dry ice and liquid nitrogen to avoid thawing of the samples. Peptides were extracted by addition of 2 ml of extraction buffer containing 50 mM Tris-HCl (pH 8.0), 150 mM NaCl, 5 mM EDTA, 0.01% Triton-X, 1 mM PMSF and protease inhibitor cocktail (Sigma-Aldrich, P8340) per gram of organ or organ content weight and sonicating the resulting suspension for 5 min. Samples were centrifuged at 16,000g for 10 min, and 40 μl of the resulting supernatant was mixed with 120 μl of a cold acetonitrile:water (9:1) solution containing an internal standard (5 μg ml^−1). Samples were analyzed and quantified by LC–MS as described above.

Residual protease activity, Thrombin (human) (thrombin; inhibitor 1.00E+03 nM): 3.9 and 4.0 and 3.8
Residual protease activity, Thrombin (human) (thrombin; inhibitor 1.25E+02 nM): 27.0 and 25.5 (2×)
Residual protease activity, Thrombin (human) (thrombin; inhibitor 1.56E+01 nM): 75.5 and 73.3 and 73.1
Residual protease activity, Thrombin (human) (thrombin; inhibitor 1.95E+00 nM): 95.2 and 97.7 and 95.3
Residual protease activity, Thrombin (human) (thrombin; inhibitor 2.50E+02 nM): 15.1 and 14.2 and 14.6
Residual protease activity, Thrombin (human) (thrombin; inhibitor 3.12E+01 nM): 59.3 and 58.1 and 56.4
Residual protease activity, Thrombin (human) (thrombin; inhibitor 3.91E+00 nM): 91.5 and 93.3 and 91.3
Residual protease activity, Thrombin (human) (thrombin; inhibitor 5.00E+02 nM): 7.6 and 7.4 (2×)
Residual protease activity, Thrombin (human) (thrombin; inhibitor 6.25E+01 nM): 44.1 and 42.5 and 42.8
Residual protease activity, Thrombin (human) (thrombin; inhibitor 7.81E+00 nM): 89.2 and 86.5 and 77.1
Residual protease activity, Thrombin (human) (thrombin; inhibitor 9.77E-01 nM): 99.8 and 102.7 and 98.9
Residual protease activity, APC ([1]; inhibitor 1.00E+04 nM): 101.7 and 94.1 and 93.6
Residual protease activity, APC ([1]; inhibitor 1.25E+03 nM): 93.2 and 97.3 and 95.1
Residual protease activity, APC ([1]; inhibitor 1.56E+02 nM): 95.1 and 104.3 and 101.7
Residual protease activity, APC ([1]; inhibitor 2.00E+04 nM): 94.9 and 98.4 and 96.8
Residual protease activity, APC ([1]; inhibitor 2.50E+03 nM): 94.9 and 96.5 and 96.6
Residual protease activity, APC ([1]; inhibitor 3.12E+02 nM): 95.1 and 90.6 and 94.4
Residual protease activity, APC ([1]; inhibitor 3.91E+01 nM): 96.3 and 96.7 and 99.0
Residual protease activity, APC ([1]; inhibitor 4.00E+04 nM): 95.7 and 97.0 and 95.5
Residual protease activity, APC ([1]; inhibitor 5.00E+03 nM): 98.3 and 99.0 and 99.1
Residual protease activity, APC ([1]; inhibitor 6.25E+02 nM): 100.4 and 91.2 and 89.1
Residual protease activity, APC ([1]; inhibitor 7.81E+01 nM): 108.2 and 108.3 and 107.3
Residual protease activity, Plasma kallikrein (plasma kallikrein; inhibitor 1.00E+04 nM): 100.3 and 97.1 and 98.3
Residual protease activity, Plasma kallikrein (plasma kallikrein; inhibitor 1.25E+03 nM): 101.3 and 99.9 and 96.3
Residual protease activity, Plasma kallikrein (plasma kallikrein; inhibitor 1.56E+02 nM): 96.4 and 108.1 and 104.0
Residual protease activity, Plasma kallikrein (plasma kallikrein; inhibitor 2.00E+04 nM): 101.2 and 98.7 and 98.9
Residual protease activity, Plasma kallikrein (plasma kallikrein; inhibitor 2.50E+03 nM): 103.4 and 100.4 and 99.0
Residual protease activity, Plasma kallikrein (plasma kallikrein; inhibitor 3.12E+02 nM): 102.1 and 105.6 and 105.7
Residual protease activity, Plasma kallikrein (plasma kallikrein; inhibitor 3.91E+01 nM): 104.4 and 99.7 and 94.4
Residual protease activity, Plasma kallikrein (plasma kallikrein; inhibitor 4.00E+04 nM): 101.1 and 97.0 and 98.9
Residual protease activity, Plasma kallikrein (plasma kallikrein; inhibitor 5.00E+03 nM): 98.7 and 96.4 and 96.9
Residual protease activity, Plasma kallikrein (plasma kallikrein; inhibitor 6.25E+02 nM): 106.1 and 103.7 and 102.1
Residual protease activity, Plasma kallikrein (plasma kallikrein; inhibitor 7.81E+01 nM): 103.2 and 99.7 and 96.6
Residual protease activity, Factor Xia (factor XIa; inhibitor 1.00E+04 nM): 95.7 and 95.4 and 95.1
Residual protease activity, Factor Xia (factor XIa; inhibitor 1.25E+03 nM): 96.1 and 95.1 and 96.0
Residual protease activity, Factor Xia (factor XIa; inhibitor 1.56E+02 nM): 107.0 and 105.2 and 107.6
Residual protease activity, Factor Xia (factor XIa; inhibitor 2.00E+04 nM): 93.9 and 90.3 and 94.5
Residual protease activity, Factor Xia (factor XIa; inhibitor 2.50E+03 nM): 100.7 and 100.4 and 101.9
Residual protease activity, Factor Xia (factor XIa; inhibitor 3.12E+02 nM): 89.3 and 92.0 and 107.2
Residual protease activity, Factor Xia (factor XIa; inhibitor 3.91E+01 nM): 99.1 and 100.7 and 101.5
Residual protease activity, Factor Xia (factor XIa; inhibitor 4.00E+04 nM): 101.0 and 99.6 and 99.1
Residual protease activity, Factor Xia (factor XIa; inhibitor 5.00E+03 nM): 104.3 and 104.7 and 110.9
Residual protease activity, Factor Xia (factor XIa; inhibitor 6.25E+02 nM): 94.0 and 96.1 and 97.6
Residual protease activity, Factor Xia (factor XIa; inhibitor 7.81E+01 nM): 100.7 and 100.8 and 101.1
Residual protease activity, Factor XIIa (factor XIIa; inhibitor 1.00E+04 nM): 96.5 and 104.4 and 105.7
Residual protease activity, Factor XIIa (factor XIIa; inhibitor 1.25E+03 nM): 99.3 and 104.0 and 102.2
Residual protease activity, Factor XIIa (factor XIIa; inhibitor 1.56E+02 nM): 96.6 and 95.7 and 104.9
Residual protease activity, Factor XIIa (factor XIIa; inhibitor 2.00E+04 nM): 93.0 and 104.6 and 101.1
Residual protease activity, Factor XIIa (factor XIIa; inhibitor 2.50E+03 nM): 101.4 and 100.3 and 106.4
Residual protease activity, Factor XIIa (factor XIIa; inhibitor 3.12E+02 nM): 98.7 and 101.4 and 105.7
Residual protease activity, Factor XIIa (factor XIIa; inhibitor 3.91E+01 nM): 100.9 and 93.5 and 95.2
Residual protease activity, Factor XIIa (factor XIIa; inhibitor 4.00E+04 nM): 94.7 and 100.5 and 101.1
Residual protease activity, Factor XIIa (factor XIIa; inhibitor 5.00E+03 nM): 96.4 and 102.9 and 108.8
Residual protease activity, Factor XIIa (factor XIIa; inhibitor 6.25E+02 nM): 97.3 and 115.8 and 103.1
Residual protease activity, Factor XIIa (factor XIIa; inhibitor 7.81E+01 nM): 96.1 and 102.4 and 80.0
SMILES: O=C1C[C@H]2CCCN2C(=O)[C@H](Cc2ccccc2)NC(=O)[C@@H](NC(=O)c2ccc(Cl)cc2)CCC=CCCCCN1 (mixture of isomers) [peptide 46]

Concentration in organ extract ([2]; Large intestine - content): 0.656 µM
Concentration in organ extract ([2]; Large intestine): 0.5 µM
Concentration in organ extract ([2]; Lower small instestine - content): 2.9 µM
Concentration in organ extract ([2]; Lower small instestine): 0.6 µM
Concentration in organ extract ([2]; Stomach - content): 87.6 µM
Concentration in organ extract ([2]; Stomach): 31.6 µM
Concentration in organ extract ([2]; Upper small instestine - content): 13.1 µM
Concentration in organ extract ([2]; Upper small instestine): 2.6 µM
SMILES: O=C1C[C@H]2CCCN2C(=O)[C@H](Cc2ccccc2)NC(=O)[C@@H](NC(=O)c2ccc(Cl)s2)CCC=CCCCCN1 [peptide 43]
in vivo gastrointestinal stability ([2]; rats, 10 mg kg^−1 p.o., 30 min, stomach, small and large intestine): large fraction of the peptide fully intact
